For orientation: pIC50 means the IC50 on a negative log10 scale, so that one unit is a factor of ten.

In the experiment the target is T1, recombinant human 15-PGDH (Homo sapiens, UniProt P15428).
T1 construct: purchased R&D Systems
T1 sequence (P15428 1-266): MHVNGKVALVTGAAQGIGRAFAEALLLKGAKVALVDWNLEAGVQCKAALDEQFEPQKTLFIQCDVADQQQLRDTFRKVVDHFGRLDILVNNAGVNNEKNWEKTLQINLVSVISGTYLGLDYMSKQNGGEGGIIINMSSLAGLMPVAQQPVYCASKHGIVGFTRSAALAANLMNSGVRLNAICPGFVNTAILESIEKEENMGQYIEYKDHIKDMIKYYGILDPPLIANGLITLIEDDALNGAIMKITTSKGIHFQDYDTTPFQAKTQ
Kind of experiment: 15-PGDH enzyme inhibition test. It is filed as biochemical. The settings on record: 4 nM recombinant human 15-PGDH, 30 μM PGE2, 1 mM NAD+, 60 minutes after starting the reaction; read-out: IC50 Value. In outline: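 4 nM recombinant human enzyme pre-incubated with compound 12 min at room temperature in 50 mM Tris-HCl pH 8.0 with 0.01% Tween 20 and 0.01% bovine gamma globulin. Reaction started with 30 μM PGE2 and 1 mM NAD+, read after 60 min by fluorescence (ex 340/em 440 nm). IC50 from concentration-response curve.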

pIC50: −log10 of the molar value.

Consider `COCn1nc2cc(N3CCCc4cc(C(=O)N5CC[C@@H](C)C5)cnc43)ccn2c1=O` [Example 8-121], for which the pIC50 is over 8.00.

As for `Cn1nc2cc(N3CCCc4cc(C(=O)N5CCC5)cnc43)ccn2c1=O` [Example 8-122], the pIC50 was over 8.00.

Take `Cn1nc2cc(N3CCCc4cc(C(=O)N5CCCC5)cnc43)ccn2c1=O` [Example 8-123]: the pIC50 is over 8.00.

Take `Cn1nc2cc(N3CCCc4cc(C(=O)N5CCCCCC5)cnc43)ccn2c1=O` [Example 8-124]: the negative-log IC50 (pIC50) was over 8.00.

Take `Cn1nc2cc(N3CCCc4cc(C(=O)N5CCCCCCC5)cnc43)ccn2c1=O` [Example 8-125]: the pIC50 was over 8.00.

Regarding `Cn1nc2cc(N3CCCc4cc(C(=O)N5CCOCC5)cnc43)ccn2c1=O` [Example 8-126], the pIC50 is 7.00 to 8.00.

`CN1CCN(C(=O)c2cnc3c(c2)CCCN3c2ccn3c(=O)n(C)nc3c2)CC1` [Example 8-127]: the pIC50 was 7.00 to 8.00.

On to `CC(=O)N1CCN(C(=O)c2cnc3c(c2)CCCN3c2ccn3c(=O)n(C)nc3c2)CC1` [Example 8-128], for which the pIC50 was under 7.00.

For the compound `Cn1nc2cc(N3CCCc4cc(C(=O)N5CC=CCC5)cnc43)ccn2c1=O` [Example 8-129], the pIC50 is over 8.00.

Consider `Cn1nc2cc(N3CCCc4cc(C(=O)N5CCc6ccccc6C5)cnc43)ccn2c1=O` [Example 8-130], for which the pIC50 is over 8.00.

Regarding `Cn1nc2cc(N3CCCc4cc(C(=O)N5Cc6ccccc6C5)cnc43)ccn2c1=O` [Example 8-131], the pIC50 was over 8.00.

`C[C@@H]1CCCCN1C(=O)c1cnc2c(c1)CCCN2c1ccn2c(=O)n(C)nc2c1` [Example 8-132]: the pIC50 was over 8.00.

For the compound `C[C@H]1CCCCN1C(=O)c1cnc2c(c1)CCCN2c1ccn2c(=O)n(C)nc2c1` [Example 8-133], the pIC50 is over 8.00.

In the case of `C[C@@H]1CCCN(C(=O)c2cnc3c(c2)CCCN3c2ccn3c(=O)n(C)nc3c2)C1` [Example 8-134], the negative logarithm of the IC50 (pIC50) is over 8.00.

As for `C[C@H]1CCCN(C(=O)c2cnc3c(c2)CCCN3c2ccn3c(=O)n(C)nc3c2)C1` [Example 8-135], the negative-log IC50 (pIC50) is over 8.00.

As for `CC1CCN(C(=O)c2cnc3c(c2)CCCN3c2ccn3c(=O)n(C)nc3c2)CC1` [Example 8-136], the pIC50 is over 8.00.

In the case of `Cn1nc2cc(N3CCCc4cc(C(=O)N5CCC[C@@H](F)C5)cnc43)ccn2c1=O` [Example 8-137], the pIC50 is over 8.00.

In the case of `Cn1nc2cc(N3CCCc4cc(C(=O)N5CCC[C@H](F)C5)cnc43)ccn2c1=O` [Example 8-138], the pIC50 is over 8.00.

Regarding `Cn1nc2cc(N3CCCc4cc(C(=O)N5CCCC(F)(F)C5)cnc43)ccn2c1=O` [Example 8-139], the pIC50 was over 8.00.

As for `Cn1nc2cc(N3CCCc4cc(C(=O)N5CCC(F)CC5)cnc43)ccn2c1=O` [Example 8-140], the pIC50 was over 8.00.

Regarding `Cn1nc2cc(N3CCCc4cc(C(=O)N5CCCC(C)(F)C5)cnc43)ccn2c1=O` (stereo not shown) [Example 8-141], the pIC50 is over 8.00.

On to `Cn1nc2cc(N3CCCc4cc(C(=O)N5CCC[C@@H](C(F)F)C5)cnc43)ccn2c1=O` [Example 8-142], for which the pIC50 is over 8.00.

Consider `Cn1nc2cc(N3CCCc4cc(C(=O)N5CCC[C@H](C(F)F)C5)cnc43)ccn2c1=O` [Example 8-143], for which the pIC50 is over 8.00.

Turning to `CC1CN(C(=O)c2cnc3c(c2)CCCN3c2ccn3c(=O)n(C)nc3c2)CCC1(F)F` (stereo not shown) [Example 8-144], the pIC50 is over 8.00.

In the case of `Cn1nc2cc(N3CCCc4cc(C(=O)N5CCC[C@@H](C(F)(F)F)C5)cnc43)ccn2c1=O` [Example 8-145], the pIC50 was 7.00 to 8.00.

On to `Cn1nc2cc(N3CCCc4cc(C(=O)N5CCC[C@H](C(F)(F)F)C5)cnc43)ccn2c1=O` [Example 8-146], for which the pIC50 is over 8.00.

For the compound `CCn1nc2cc(N3CCCc4cc(C(=O)N5CCC5)cnc43)ccn2c1=O` [Example 8-147], the negative logarithm of the IC50 (pIC50) is over 8.00.

Consider `CCn1nc2cc(N3CCCc4cc(C(=O)N5CCCC5)cnc43)ccn2c1=O` [Example 8-148], for which the negative-log IC50 (pIC50) was over 8.00.

For the compound `CCn1nc2cc(N3CCCc4cc(C(=O)N5CCCCCC5)cnc43)ccn2c1=O` [Example 8-149], the pIC50 was over 8.00.

Take `CCn1nc2cc(N3CCCc4cc(C(=O)N5CCCCCCC5)cnc43)ccn2c1=O` [Example 8-150]: the pIC50 is over 8.00.

In the case of `CCn1nc2cc(N3CCCc4cc(C(=O)N5CCOCC5)cnc43)ccn2c1=O` [Example 8-151], the pIC50 is 7.00 to 8.00.

On to `CCn1nc2cc(N3CCCc4cc(C(=O)N5CCN(C)CC5)cnc43)ccn2c1=O` [Example 8-152], for which the pIC50 was 7.00 to 8.00.

As to `CCn1nc2cc(N3CCCc4cc(C(=O)N5CCN(C(C)=O)CC5)cnc43)ccn2c1=O` [Example 8-153], the pIC50 is under 7.00.

On to `CCn1nc2cc(N3CCCc4cc(C(=O)N5CC=CCC5)cnc43)ccn2c1=O` [Example 8-154], for which the pIC50 was over 8.00.

Turning to `CCn1nc2cc(N3CCCc4cc(C(=O)N5CCc6ccccc6C5)cnc43)ccn2c1=O` [Example 8-155], the pIC50 was over 8.00.

Turning to `CCn1nc2cc(N3CCCc4cc(C(=O)N5Cc6ccccc6C5)cnc43)ccn2c1=O` [Example 8-156], the pIC50 is over 8.00.

In the case of `CCn1nc2cc(N3CCCc4cc(C(=O)N5CCCC[C@H]5C)cnc43)ccn2c1=O` [Example 8-157], the negative-log IC50 (pIC50) was 7.00 to 8.00.

On to `CCn1nc2cc(N3CCCc4cc(C(=O)N5CCCC[C@@H]5C)cnc43)ccn2c1=O` [Example 8-158], for which the pIC50 was over 8.00.

As to `CCn1nc2cc(N3CCCc4cc(C(=O)N5CCC[C@@H](C)C5)cnc43)ccn2c1=O` [Example 8-159], the pIC50 was over 8.00.

Turning to `CCn1nc2cc(N3CCCc4cc(C(=O)N5CCC[C@H](C)C5)cnc43)ccn2c1=O` [Example 8-160], the negative-log IC50 (pIC50) was over 8.00.

Regarding `CCn1nc2cc(N3CCCc4cc(C(=O)N5CCC(C)CC5)cnc43)ccn2c1=O` [Example 8-161], the pIC50 is over 8.00.

Consider `CCn1nc2cc(N3CCCc4cc(C(=O)N5CCC[C@@H](F)C5)cnc43)ccn2c1=O` [Example 8-162], for which the pIC50 was over 8.00.

Turning to `CCn1nc2cc(N3CCCc4cc(C(=O)N5CCC[C@H](F)C5)cnc43)ccn2c1=O` [Example 8-163], the pIC50 was over 8.00.

On to `CCn1nc2cc(N3CCCc4cc(C(=O)N5CCCC(F)(F)C5)cnc43)ccn2c1=O` [Example 8-164], for which the pIC50 was over 8.00.

Turning to `CCn1nc2cc(N3CCCc4cc(C(=O)N5CCC(F)CC5)cnc43)ccn2c1=O` [Example 8-165], the pIC50 was over 8.00.

For `CCn1nc2cc(N3CCCc4cc(C(=O)N5CCCC(C)(F)C5)cnc43)ccn2c1=O` (stereo not shown) [Example 8-166], the pIC50 is over 8.00.

As for `CCn1nc2cc(N3CCCc4cc(C(=O)N5CCC[C@@H](C(F)F)C5)cnc43)ccn2c1=O` [Example 8-167], the pIC50 is over 8.00.

For the compound `CCn1nc2cc(N3CCCc4cc(C(=O)N5CCC[C@H](C(F)F)C5)cnc43)ccn2c1=O` [Example 8-168], the pIC50 is over 8.00.

Regarding `CCn1nc2cc(N3CCCc4cc(C(=O)N5CCC(F)(F)C(C)C5)cnc43)ccn2c1=O` (stereo not shown) [Example 8-169], the pIC50 was over 8.00.

For `CCn1nc2cc(N3CCCc4cc(C(=O)N5CCC[C@@H](C(F)(F)F)C5)cnc43)ccn2c1=O` [Example 8-170], the pIC50 was 7.00 to 8.00.

With `CCn1nc2cc(N3CCCc4cc(C(=O)N5CCC[C@H](C(F)(F)F)C5)cnc43)ccn2c1=O` [Example 8-171], the pIC50 is over 8.00.

As for `Cn1nc2cc(N3CCOc4cc(C(=O)N5CCCCC5(C)C)cnc43)ccn2c1=O` [Example 8-172], the pIC50 was under 7.00.

Regarding `Cn1nc2cc(N3CCOc4cc(C(=O)N5CCCC5(C)C)cnc43)ccn2c1=O` [Example 8-173], the pIC50 was 7.00 to 8.00.

As to `Cn1nc2cc(N3CCOc4cc(C(=O)NCCCO)cnc43)ccn2c1=O` [Example 8-174], the pIC50 was 7.00 to 8.00.

Turning to `CN(CCCO)C(=O)c1cnc2c(c1)OCCN2c1ccn2c(=O)n(C)nc2c1` [Example 8-175], the pIC50 is 7.00 to 8.00.

With `Cn1nc2cc(N3CCOc4cc(C(=O)NCCCCO)cnc43)ccn2c1=O` [Example 8-176], the pIC50 is 7.00 to 8.00.

On to `CN(CCCCO)C(=O)c1cnc2c(c1)OCCN2c1ccn2c(=O)n(C)nc2c1` [Example 8-177], for which the negative-log IC50 (pIC50) is under 7.00.

With `CCC(O)CNC(=O)c1cnc2c(c1)OCCN2c1ccn2c(=O)n(C)nc2c1` (stereo not shown) [Example 8-178], the pIC50 is under 7.00.

As to `CCN(CC(C)O)C(=O)c1cnc2c(c1)OCCN2c1ccn2c(=O)n(C)nc2c1` (stereo not shown) [Example 8-179], the pIC50 was 7.00 to 8.00.

Take `CC(O)CCNC(=O)c1cnc2c(c1)OCCN2c1ccn2c(=O)n(C)nc2c1` (stereo not shown) [Example 8-180]: the pIC50 was 7.00 to 8.00.

`CC(O)CCN(C)C(=O)c1cnc2c(c1)OCCN2c1ccn2c(=O)n(C)nc2c1` (stereo not shown) [Example 8-181]: the pIC50 was 7.00 to 8.00.

Regarding `CN(CC(C)(C)O)C(=O)c1cnc2c(c1)OCCN2c1ccn2c(=O)n(C)nc2c1` [Example 8-182], the pIC50 is 7.00 to 8.00.

For `Cn1nc2cc(N3CCOc4cc(C(=O)N5CCC(C#N)CC5)cnc43)ccn2c1=O` [Example 8-183], the pIC50 is 7.00 to 8.00.

In the case of `CN1Cc2cc(N3CCOc4cc(C(=O)N5CCC5)cnc43)ccc2C1=O` [Example 8-184], the pIC50 was over 8.00.

In the case of `CN1Cc2cc(N3CCOc4cc(C(=O)N5CCCC5)cnc43)ccc2C1=O` [Example 8-185], the pIC50 was over 8.00.

Take `CN1Cc2cc(N3CCOc4cc(C(=O)N5CCCCCC5)cnc43)ccc2C1=O` [Example 8-186]: the pIC50 was over 8.00.

For `CN1Cc2cc(N3CCOc4cc(C(=O)N5CCCCCCC5)cnc43)ccc2C1=O` [Example 8-187], the pIC50 is over 8.00.

The record behind these values is US12577217B2, “15-PGDH inhibitor” (KYORIN Pharmaceutical Co., Ltd., priority 2019, dated 2026).
